For assay [1], the system named is xanthine oxidase. The arrangement: method as in PMID 18201686. To be noted: cited from earlier work.
The test system of assay [2] is xanthine oxidase. The arrangement: method as in PMID 30189275. To be noted: better than allopurinol; cited from earlier work.
In assay [3] the target is T1, xanthine oxidase (Bos taurus, UniProt P80457).
T1 construct: xanthine oxidase (cow’s milk) were purchased from Sigma-Aldrich Chemicals; purchased Sigma-Aldrich Chemicals (St. Louis, MO, USA); host or cells: cow's milk (natural source)
T1 sequence (P80457 whole entry): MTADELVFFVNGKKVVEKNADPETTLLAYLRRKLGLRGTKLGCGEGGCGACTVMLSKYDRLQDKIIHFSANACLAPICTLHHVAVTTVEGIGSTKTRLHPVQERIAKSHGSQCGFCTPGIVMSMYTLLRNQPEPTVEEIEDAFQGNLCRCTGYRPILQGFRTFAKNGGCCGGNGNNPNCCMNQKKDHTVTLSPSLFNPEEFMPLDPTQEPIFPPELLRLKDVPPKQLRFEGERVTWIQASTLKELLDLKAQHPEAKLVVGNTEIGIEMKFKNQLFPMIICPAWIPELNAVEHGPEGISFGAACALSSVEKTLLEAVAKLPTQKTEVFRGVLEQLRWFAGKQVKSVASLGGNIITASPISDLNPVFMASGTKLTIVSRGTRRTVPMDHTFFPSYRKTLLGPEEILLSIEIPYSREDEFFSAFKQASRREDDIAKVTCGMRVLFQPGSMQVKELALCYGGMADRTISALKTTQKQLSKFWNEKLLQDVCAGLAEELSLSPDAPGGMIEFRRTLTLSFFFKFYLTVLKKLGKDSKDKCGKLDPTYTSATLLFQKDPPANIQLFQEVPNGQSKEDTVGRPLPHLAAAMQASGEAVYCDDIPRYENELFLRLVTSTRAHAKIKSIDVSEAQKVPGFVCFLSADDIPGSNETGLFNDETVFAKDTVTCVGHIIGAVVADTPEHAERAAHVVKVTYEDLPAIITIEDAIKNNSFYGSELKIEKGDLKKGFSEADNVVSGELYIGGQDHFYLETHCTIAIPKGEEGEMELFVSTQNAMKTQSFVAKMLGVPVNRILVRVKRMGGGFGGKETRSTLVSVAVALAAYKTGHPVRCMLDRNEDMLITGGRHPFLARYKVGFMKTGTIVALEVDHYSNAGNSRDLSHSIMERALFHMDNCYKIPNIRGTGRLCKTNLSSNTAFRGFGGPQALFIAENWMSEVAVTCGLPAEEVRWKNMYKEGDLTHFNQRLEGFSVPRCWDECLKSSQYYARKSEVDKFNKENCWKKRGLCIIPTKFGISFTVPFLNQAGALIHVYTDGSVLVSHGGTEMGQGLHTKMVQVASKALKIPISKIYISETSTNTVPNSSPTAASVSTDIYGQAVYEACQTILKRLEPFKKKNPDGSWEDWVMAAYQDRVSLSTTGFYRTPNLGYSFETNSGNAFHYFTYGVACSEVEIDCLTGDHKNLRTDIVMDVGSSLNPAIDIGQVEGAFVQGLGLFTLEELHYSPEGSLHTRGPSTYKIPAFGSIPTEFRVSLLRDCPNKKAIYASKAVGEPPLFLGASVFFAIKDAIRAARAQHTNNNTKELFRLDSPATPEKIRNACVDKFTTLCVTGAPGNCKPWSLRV
As to the kind of experiment: In vitro xanthine oxidase inhibitory assay. To be noted: for inhibition at 6.25 µg/mL: 6.25 μg/mL; for inhibition at 12.5 µg/mL: 12.5 μg/mL; for inhibition at 25 µg/mL: 25 μg/mL; for inhibition at 50 µg/mL: 50 μg/mL; for IC50: mean ± S.E.M., n = 3, read-out: IC50 value of xanthine oxidase inhibition (converted). The format is biochemical, cow. As for the experimental part:
The xanthine oxidase inhibitory assay was carried out using a previously reported method with slight modifications. […] This was followed by dilution with potassium phosphate buffer (0.05 M, pH 7.5) to achieve the desired concentrations. Each test solution contained 0.5% DMSO. The assay was performed in triplicates in a 96-well microplate. […] Then, 100 μL of substrate solution, xanthine (0.15 mM, pH 7.5), was added before further incubating at 25 °C for 10 min. The final assay mixture was spectrophotometrically measured at 295 nm. Xanthine oxidase inhibitory activity was expressed as the percentage of xanthine oxidase inhibition and calculated using the following formula: %Xanthine Oxidase Inhibition=A−B−C−D/A−B×100

Assay [4] concerns xanthine oxidase. The arrangement: method as in PMID 8572586. To be noted: cited from earlier work.
The mark [5] stands for this setting: read-out: Percentage of xanthine oxidase inhibition.
The mark [6] stands for this setting: 100 μg/mL, read-out: Percentage of xanthine oxidase inhibition.

Read-outs that look alike come from different tables or passages of the source.

Usually inhibition stands for the percentage by which the read-out fell short of the control. Broadly, the IC50 is the midpoint of a concentration-inhibition curve.

As to `O=c1cc(O)c2ccccc2o1` [4-hydroxycoumarin], the “mode of inhibition against xanthine oxidase” value (shortened to “mode of inhibition”) in assay [1] is recorded as “competitive inhibition”.
As to `O=c1oc2cc(O)cc(O)c2cc1-c1cccc(O)c1` [5,7-dihydroxy-3-(3-hydroxyphenyl) coumarin], in assay [2], the “xanthine oxidase inhibitory activity relative to allopurinol” value is given as 7 fold.
For `Cc1cc(=O)oc2cc(O)c(O)cc12` [7-hydroxy-4-methylesculetin], the “mode of inhibition” value in assay [1] is recorded as “competitive inhibition”.
With `O=c1ccc2ccc(O)cc2o1` [7-hydroxycoumarin], the “mode of inhibition” value in assay [1] was “competitive inhibition”.
Turning to `Oc1ncnc2[nH]ncc12` [Allopurinol, allopurinol, reference compound], in assay [3] (setting [5]), the inhibition at 0.0064 µg/mL is 4.12%, the inhibition at 0.032 µg/mL stood at 17.8%, the inhibition at 0.16 µg/mL came out at 29.5% and the inhibition at 0.8 µg/mL amounted to 93.7%. Further, in assay [3] (setting [5]), the inhibition at 4 µg/mL amounted to 98.9%, the inhibition at 20 µg/mL turned out to be 99% and the inhibition at 100 µg/mL worked out at 99.8%.
As to `COc1cc(O)c(C)c2c(=O)oc(O)c(C)c12` [Compound 1, 3,7-dihydroxy-5-methoxy-4,8-dimethyl-isocoumarin], the inhibition at 0.39 µg/mL in assay [3] (0.39 μg/mL, read-out: Percentage of xanthine oxidase inhibition) was determined as 39.6 ± 0.68%. Moreover, in assay [3] (0.78 μg/mL, read-out: Percentage of xanthine oxidase inhibition), the inhibition at 0.78 µg/mL amounted to 54.14 ± 0.34%. In addition, the inhibition at 1.56 µg/mL in assay [3] (1.56 μg/mL, read-out: Percentage of xanthine oxidase inhibition) was 66.49 ± 0.05%. The inhibition at 3.13 µg/mL in assay [3] (3.13 μg/mL, read-out: Percentage of xanthine oxidase inhibition) is 76.17 ± 0.52%. Also, in assay [3] (setting [5]), the inhibition at 6.25 µg/mL was determined as 86.02 ± 0.14%, the inhibition at 12.5 µg/mL was determined as 91.75 ± 0.22%, the inhibition at 25 µg/mL amounted to 95.04 ± 0.86% and the inhibition at 50 µg/mL came to 96.91 ± 0.06%. In assay [3], the IC50 is 2.79 µM.
With `COC1=CC(=O)C(O)=C(CCCCCCC/C=C\CCCCCCCC2=C(O)C(=O)C=C(OC)C2=O)C1=O` [Compound 2, Ardisiaquinone A], in assay [3] (setting [5]), the inhibition at 6.25 µg/mL worked out at 9.11 ± 0.28%, the inhibition at 12.5 µg/mL was 14.5 ± 0.45%, the inhibition at 25 µg/mL turned out to be 36.31 ± 0.08% and the inhibition at 50 µg/mL worked out at 74.08 ± 0.5%. Besides, the “xanthine oxidase inhibitory activity (in words)” value in assay [3] (isolated compounds) is “low activity”. Further, the concentration for half-maximal inhibition (IC50) in assay [3] is 59 µM.
As for `CCCC/C=C\CCCCCCCCCC1=C(O)C(=O)C=C(OC)C1=O` [Compound 3, Maesanin], the inhibition at 100 µg/mL in assay [3] (setting [5]) turned out to be 0%.
`CC[C@H](/C=C/[C@@H](C)[C@H]1CC[C@H]2[C@@H]3CC=C4C[C@@H](O)CC[C@]4(C)[C@H]3CC[C@]12C)C(C)C` [Compound 4, Stigmasterol]: the inhibition at 100 µg/mL in assay [3] (setting [6]) came to 0%.
For `CCCCCCCCCCCCCCCCCCCCCCCC` [Compound 5, Tetracosane], in assay [3] (setting [6]), the inhibition at 100 µg/mL worked out at 0%.
As to `CCCCCCCCCCCCCCCCC(=O)O` [Compound 6, Margaric acid], in assay [3] (setting [6]), the inhibition at 100 µg/mL was found to be 0%.
For the compound `O=c1ccc2cc(O)c(O)cc2o1` [Esculetin], in assay [1], the “mode of inhibition” value is recorded as “competitive inhibition” and the “relative potency among selected coumarins against xanthine oxidase” value was “most potent inhibitor”. Also, the “xanthine oxidase inhibitory activity (in words)” value in assay [4] is reported as “strong”.
For the compound `O=c1ccc2ccccc2o1` [coumarin], the “mode of inhibition” value in assay [1] is on record as “competitive inhibition”.
On to `O=C1CCc2ccccc2O1` [dihydrocoumarin], for which the “mode of inhibition” value in assay [1] is reported as “competitive inhibition”.
Take `COc1cc2ccc(=O)oc2cc1O` [scopoletin]: in assay [1], the “mode of inhibition” value is “competitive inhibition”.

The record behind these values is publication PMC7590683, “Xanthine oxidase inhibitory activity of a new isocoumarin obtained from Marantodes pumilum var. pumila leaves” (BMC Complementary Medicine and Therapies, 2020).
